Experiment [1] is described as follows: DRD fibroblast viability loss – cell-based, non-viral oncogenic, luminescence, dose response (AID 1934). It is filed as functional. Conditions: Homo sapiens.
The test system of a further experiment is HeLa. Put plainly: Cytotoxicity counterscreen assay for transcriptional activators of heat shock protein 70 (Hsp70). [Related pubchem assays: 1203, 1252 ]. The following applies: Homo sapiens. It is filed as functional. A general note: A counterscreen serves to expose hits that act by an unwanted route or on another target.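 Further: cells exposed to compound for 16 hours before readout.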
In experiment [2] the test system is BJ. Put plainly: cells. It is filed as functional, cell-based. Conditions: Homo sapiens.
The subject of experiment [3] is BJ. Description: BJ-TERT fibroblast viability loss – cell-based, RAS-independent, luminescence, dose response (AID 1933). It counts as functional. Conditions: Homo sapiens.
The subject of experiment [4] is BJ. Put plainly: BJ-TERT-LT-ST fibroblast viability loss – cell-based, RAS-independent, luminescence, dose response (AID 1935).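 Further: BJ fibroblasts immortalized with TERT plus LT and ST oncogenes.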 It counts as functional. The following applies: Homo sapiens.
The nature of experiment [5]: HEK-293T cell viability reduction – luminescence, B-cell screen hits, cytotoxicity control for BCR NF-kB inhibitor project, dose response (AID 489021).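 Further: HEK-293T cells carrying an NF-kB luciferase reporter; cells exposed to compound for about 14 hours before viability readout.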 It counts as functional, cell-based.
Experiment [6] in a line: M. tuberculosis H37Rv growth inhibitors, H37Rv strain (AID 1626). It counts as functional.
The target of experiment [7] is Lytic switch protein BZLF1 (Epstein-Barr virus (strain B95-8) (HHV-4) (Human herpesvirus 4), UniProt P03206). Put plainly: inhibition of BZLF1 ZTA DNA binding – biochemical, fluorescence polarization, Epstein-Barr virus, 1536-well, counter-screen for EBNA-1 inhibitor project, dose response (AID 2377).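 Further: fluorescence polarization of Cy5-labelled ZRE DNA probe bound by purified Zta.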 Set-up: species or system human gammaherpesvirus 4. A general note: Fluorescence polarisation rises when a labelled molecule tumbles more slowly, as on binding a larger partner.
Sequence of Lytic switch protein BZLF1 (P03206 whole entry): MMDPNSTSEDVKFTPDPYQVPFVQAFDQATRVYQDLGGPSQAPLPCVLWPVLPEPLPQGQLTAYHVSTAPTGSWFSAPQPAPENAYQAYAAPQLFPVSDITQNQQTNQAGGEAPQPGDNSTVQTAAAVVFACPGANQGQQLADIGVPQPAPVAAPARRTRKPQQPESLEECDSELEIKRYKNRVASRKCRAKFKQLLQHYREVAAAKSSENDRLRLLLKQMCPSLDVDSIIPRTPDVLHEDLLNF

For experiment [8], the target named is Epstein-Barr nuclear antigen 1 (Epstein-Barr virus (strain B95-8) (HHV-4) (Human herpesvirus 4), UniProt P03211). Put plainly: inhibition of EBV nuclear antigen 1 DNA binding – biochemical, fluorescence polarization, 1536-well, dose response (AID 2381).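 Further: fluorescence polarization of a Cy5 DNA probe bound by EBNA-1 protein.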 Set-up: species or system human gammaherpesvirus 4.
Sequence of Epstein-Barr nuclear antigen 1 (P03211 whole entry): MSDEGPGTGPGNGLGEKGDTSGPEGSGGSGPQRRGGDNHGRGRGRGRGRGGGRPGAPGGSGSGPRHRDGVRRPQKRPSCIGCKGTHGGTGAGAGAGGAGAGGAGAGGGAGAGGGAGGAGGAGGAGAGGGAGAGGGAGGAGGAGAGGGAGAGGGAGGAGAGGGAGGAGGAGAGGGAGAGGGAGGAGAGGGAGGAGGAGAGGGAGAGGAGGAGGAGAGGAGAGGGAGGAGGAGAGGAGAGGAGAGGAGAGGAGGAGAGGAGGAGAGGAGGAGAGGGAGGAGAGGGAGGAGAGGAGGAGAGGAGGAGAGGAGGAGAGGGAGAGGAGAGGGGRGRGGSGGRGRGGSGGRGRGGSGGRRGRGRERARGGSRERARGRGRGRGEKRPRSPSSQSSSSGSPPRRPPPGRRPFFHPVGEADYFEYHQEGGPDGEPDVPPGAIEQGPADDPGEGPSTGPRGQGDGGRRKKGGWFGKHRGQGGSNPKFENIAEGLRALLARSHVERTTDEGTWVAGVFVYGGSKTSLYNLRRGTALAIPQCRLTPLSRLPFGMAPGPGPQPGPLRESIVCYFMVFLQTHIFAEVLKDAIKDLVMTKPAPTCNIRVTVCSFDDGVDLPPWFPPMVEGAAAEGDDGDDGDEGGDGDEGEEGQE
Experiment [9] in a line: Luminescence Cell-Based Dose Retest to Confirm Inhibitors of Cancer Stem Cells. [Related pubchem assays (depositor defined):AID2717, AID2721]. It is filed as functional. Conditions: Homo sapiens.
A further experiment addresses Nonstructural protein 1 (Influenza A virus, UniProt Q194T2). It counts as functional, Influenza A virus (A/California/07/2009(H1N1)).
The nature of experiment [10]: mitochondrial function rescue without frataxin homolog – Friedreich's ataxia, plus single-dose screen, dose response (AID 1465).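 Further: yeast depleted of Yfh1p frataxin homolog grown on glycerol needing respiration; WST-1 tetrazolium dye reduction as measure of cellular dehydrogenase metabolic activity.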 It counts as functional.

SMILES strings stand for the structures. Active and inactive are the calls of the source.
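Wherever AC50 is given: cells exposed to compound for roughly 70 hours or longer before luminescence read.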

Sequence of Nonstructural protein 1 (Q194T2 whole entry): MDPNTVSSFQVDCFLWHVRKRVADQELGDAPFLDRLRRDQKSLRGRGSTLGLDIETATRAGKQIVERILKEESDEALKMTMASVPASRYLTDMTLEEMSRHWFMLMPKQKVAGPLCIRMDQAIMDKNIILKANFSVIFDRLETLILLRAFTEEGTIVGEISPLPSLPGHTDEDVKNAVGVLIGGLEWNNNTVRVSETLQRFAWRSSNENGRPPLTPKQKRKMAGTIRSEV

In general, EC50 refers to the concentration at which the effect is half-maximal. For orientation: CC50 means the concentration that lowers cell viability or growth by half. High values mean better tolerance by the cells, low ones harm at low concentration. For the compound `COc1ccc(/C=C/C(=O)c2cc(F)ccc2OC(=O)c2ccccc2OC)cc1OC`, the EC50 in experiment [1] was 2.56 µM (active); in the experiment with BJ [2], 2.76 µM (active); in the experiment on BJ [3], 1.14 µM (inconclusive); in the experiment on BJ [4], 1.41 µM (active). Besides, the 50% cytotoxic concentration (CC50) in the experiment with HeLa was 14.6 µM (not active).
One may read the IC50 as the point on the concentration scale where inhibition reaches its midpoint. For the compound `Nc1ccccc1SCC(=O)Nc1nc(-c2ccccc2)cs1`, the results for the IC50 in experiment [5] and in [6] were > 80 µM (inactive) and > 100 µM (active), respectively.
Turning to `NS(=O)(=O)c1ccc(NC(=S)NC(=O)c2ccc3c(c2)OCO3)cc1`, the IC50 is 33.3 µM (not active) in experiment [7] and 19.5 µM (not active) in [8].
The AC50 is the concentration at which the activity in the assay is half-maximal. Take `CC(=O)NC(c1ccccc1)c1cc([N+](=O)[O-])c2cccnc2c1O` (configuration not stated): the AC50 in experiment [9] is 1.69 µM (active). Besides, at Nonstructural protein 1, the IC50 is 5.52 µM (active). In addition, in experiment [10], the EC50 is > 100 µM (active).

Source of the values: ChEMBL document CHEMBL1201862, “PubChem BioAssay data set” (2004).
